Source: PubChem BioAssay AID1963448 (Molecular Pharmacology Branch, DTP, NCI, 2024)

System: 616215-338-R-J1-PDC complex spheroid growth, % test/control
Assay: Anticancer human tumor 616215-338-R-J1-PDC patient-derived colon adenocarcinoma cell line growth inhibition [Asc]
Details: for IC50: curve of first compound; for viability, T/C: stronger effect = lower value
In short: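 Stromal components (HUVEC and hMSC) are co-assembled with the cancer cells into multicellular spheroids. Drugs are then added singly or paired, at concentrations falling by half-log increments from a clinically achievable maximum, capped at 10 microM without known Cmax.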
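Note: spheroids exposed to agents for seven days before readout.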
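Throughout, for viability, T/C: 100% = DMSO vehicle control viability.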

Work on `CCN1C(C(=O)NC23CCC(C(=O)O)(CC2)CC3)C(c2cccc(Cl)c2F)C2(C(=O)Nc3cc(Cl)ccc32)C12CCCCC2` (stereo not given) + Cc1c(S(C)(=O)=O)c(-c2cc(F)cc(N3CCN(c4ccc(NS(=O)(=O)c5ccc(NC(CCN6CCC(C(=O)OCCCP(=O)(O)O)CC6)CSc6ccccc6)c(S(=O)(=O)C(F)(F)F)c5)cc4)CC3)c2)c(-c2ccc(Cl)cc2)n1C(C)C yielded an IC50 (second compound 0.1 µM) of 490 nM, an IC50 (second compound 0.316 µM) of 123 nM and an IC50 (second compound 1 µM) of 11 nM. It also gave an IC50 (second compound 3.16 µM) of less than 9.49 nM, an IC50 (second compound 10 µM) of less than 9.49 nM and a viability, T/C (second compound 0.1 µM, first compound 0.00949 µM) of 92.5%. The viability, T/C (second compound 0.1 µM, first compound 0.03 µM) was 101%, the viability, T/C (second compound 0.1 µM, first compound 0.0949 µM) was 77.3% and the viability, T/C (second compound 0.1 µM, first compound 0.3 µM) was 50.7%. It also gave a viability, T/C (second compound 0.1 µM, first compound 0.949 µM) of 43.3%, a viability, T/C (second compound 0.1 µM, first compound 3 µM) of 2.3% and a viability, T/C (second compound 0.316 µM, first compound 0.00949 µM) of 89.4%. For the same molecule, the viability, T/C (second compound 0.316 µM, first compound 0.03 µM) was 81.1%, the viability, T/C (second compound 0.316 µM, first compound 0.0949 µM) was 51.6% and the viability, T/C (second compound 0.316 µM, first compound 0.3 µM) was 34.3%. The viability, T/C (second compound 0.316 µM, first compound 0.949 µM) was 3.82%, the viability, T/C (second compound 0.316 µM, first compound 3 µM) was 0.48% and the viability, T/C (second compound 1 µM, first compound 0.00949 µM) was 53.2%. The viability, T/C (second compound 1 µM, first compound 0.03 µM) was 29.8%, the viability, T/C (second compound 1 µM, first compound 0.0949 µM) was 17.1% and the viability, T/C (second compound 1 µM, first compound 0.3 µM) was 7.2%. For the same molecule, the viability, T/C (second compound 1 µM, first compound 0.949 µM) was 2.56%, the viability, T/C (second compound 1 µM, first compound 3 µM) was 0.18% and the viability, T/C (second compound 3.16 µM, first compound 0.00949 µM) was 20.3%. It also gave a viability, T/C (second compound 3.16 µM, first compound 0.03 µM) of 5.05%, a viability, T/C (second compound 3.16 µM, first compound 0.0949 µM) of 1.2% and a viability, T/C (second compound 3.16 µM, first compound 0.3 µM) of 0.74%. For the same molecule, the viability, T/C (second compound 3.16 µM, first compound 0.949 µM) was 0.06%, the viability, T/C (second compound 3.16 µM, first compound 3 µM) was 0.2% and the viability, T/C (second compound 10 µM, first compound 0.00949 µM) was 4.94%. For the same molecule, the viability, T/C (second compound 10 µM, first compound 0.03 µM) was 1.17%, the viability, T/C (second compound 10 µM, first compound 0.0949 µM) was 0.43% and the viability, T/C (second compound 10 µM, first compound 0.3 µM) was 0.5%. It also gave a viability, T/C (second compound 10 µM, first compound 0.949 µM) of 1.65% and a viability, T/C (second compound 10 µM, first compound 3 µM) of 1.41%.
